From patent US5847148A, “Thiadiazole derivatives useful for the treatment of diseases related to connective tissue degradation” (Pharmacia & Upjohn Company, priority 1997, dated 1998) come the findings set out here.

What is called Ki is the dissociation constant of the complex between target and ligand, obtained from inhibition or displacement.

Sequence of Stromelysin (P08254 100-477): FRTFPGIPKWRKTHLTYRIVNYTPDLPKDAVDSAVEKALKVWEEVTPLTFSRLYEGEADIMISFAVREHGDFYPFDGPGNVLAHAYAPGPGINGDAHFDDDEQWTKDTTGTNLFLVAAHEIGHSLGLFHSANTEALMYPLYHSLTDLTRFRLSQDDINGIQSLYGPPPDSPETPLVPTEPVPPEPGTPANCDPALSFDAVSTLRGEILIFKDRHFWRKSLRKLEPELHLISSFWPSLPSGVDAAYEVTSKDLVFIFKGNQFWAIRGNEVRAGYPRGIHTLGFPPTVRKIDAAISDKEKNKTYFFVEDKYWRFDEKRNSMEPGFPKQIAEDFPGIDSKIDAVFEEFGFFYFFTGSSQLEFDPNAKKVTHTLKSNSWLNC

This test addresses Stromelysin (Homo sapiens, UniProt P08254). In words: MMP (stromelysin) inhibition, particle concentration fluorescence assay. The format is biochemical. The note with it: in vitro; fluorescein/biotin substrate; MMP buffer pH 7.5; room temperature; 15 minutes preincubation, 1-3 hours; read-out: Stromelysin Ki (MMP Inhibition Constants).
Experimental: Inhibitory activity is evaluated in one or more of the MMP enzymes (stromelysin, gelatinase, and collagenase) in vitro using particle concentration fluorescence assay. An inhibitor binds to MMP enzymes which prevents the degradation of a substrate by stromelysin, gelatinase, or collagenase. The substrate has attached to it a fluorescein and a biotin moiety. The intact substrate then binds to an avidin-coated particle via the biotin moiety. Once the particle is washed and dried, a fluorescent signal is generated since the fluorescent group is attached to the particle. Without an inhibitor present, the substrate is degraded by MMP enzymes and the fluorescein group is removed, therefore, no fluorescent signal can be detected. Testing compounds are dissolved in DMSO to the desired concentration, then the solutions are diluted to 1:5 with MMP buffer (50 mM Tris-HCl, pH 7.5; 150 mM NaCl; 0.02% NaN3). Serial two-fold dilutions of each compound are prepared. A concentrated, activated enzyme solution is transferred into each plate of the testing compounds, and the mixture is incubated at room temperature for 15 minutes. […] At this point, the substrate mixture is mixed with 0.1% avidin-coated polystyrene particles. After 15 minutes, the fluorescence values are measured following filtration and washing of the beads. Ki values are then calculated.
In the case of `COC(=O)[C@H](COC(C)(C)C)NC(=O)Nc1n[nH]c(=S)s1` [Example 67, N-[[(4,5-Dihydro-5-thioxo-1,3,4-thiadiazol-2-yl)amino]carbonyl]-O-(1,1-dimethylethoxy)-L-serine methyl ester], the Ki was found to be 6700 nM.

Consider `CNC(=O)[C@@H](NC(=O)Nc1n[nH]c(=S)s1)[C@@H](C)OC(C)(C)C` [Example 75, 2-[[[(4,5-Dihydro-5-thioxo-1,3,4-thiadiazol-2-yl)amino]carbonyl]amino]-3-(1,1-dimethylethoxy)-N-methyl-(S)-butanamide], for which the inhibition constant Ki came out at 670 nM.

In the case of `CNC(=O)[C@@H](NC(=O)Nc1n[nH]c(=S)s1)[C@@H](C)OCc1ccccc1` [Example 66, 2-[[[(4,5-Dihydro-5-thioxo-1,3,4-thiadiazol-2-yl)amino]carbonyl]amino]-N-methyl-3-(phenylmethoxy)-(2S)-butanamide], the Ki amounted to 760 nM.
